From patent US20160250255A1, “METHODS FOR INDUCTION OF ANTIGEN-SPECIFIC REGULATORY T CELLS” (IMCYSE SA, priority 2013, published 2016)

Columns and labels:
[1] = system: APCs; experiment: Capacity of NKT cells to induce apoptosis of APCs, peptide with modified CD1d binding motif; type: cell-based; conditions: W substituted at position P7 of the CD1d binding motif
Procedure: Modification of the core sequence of the CD1d binding motif is carried out by introducing a hydrophobic amino acid at position P7 of the motif and generates the peptide IAFRDN FIGLMYW [SEQ. ID NO: 3], in which W at position 7 increases the binding to the hydrophobic pocket of CD1d.

[2] = system: dendritic cells; experiment: Induction of apoptosis of peptide-loaded dendritic cells by peptide-expanded NKT cells (annexin V binding); type: cell-based, C57BL/6 mice; conditions: NKT cells expanded with the peptide; FIG. 1, means of 2 experiments and SEM; negative control dendritic cells with no peptides
Procedure: Antigen-presenting cells (APC) are prepared from C57BL/6 mice and loaded with a peptide encompassing a CD1d-restricted NKT cell peptide epitope of hexon-6 capsid protein of adenovirus 5 vector used for gene therapy or gene vaccination.
Dendritic cells loaded with one of these peptides are then incubated with naïve CD62L+ CD4+ cells obtained from the spleen. After several cycles of stimulation, the capacity of NKT cells to induce apoptosis of the corresponding APC is measured and a comparison is established between peptides for their capacity to induce apoptosis.
The results shown in FIG. 1 (means of 2 experiments and SEM) indicate that NKT cells expanded with peptide of either SEQ. ID NO: 1 or SEQ. […] Negative controls include dendritic cells incubated with no peptides.

[3] = system: WEHI 231 cells; experiment: Induction of apoptosis of B cell line WEHI 231 by peptide-expanded NKT cells; type: cell-based, BALB/c mice; conditions: WEHI 231 B cell line (H-2d) as APC; NKT cells elicited with the peptide; FIG. 3, means of 2 experiments and SEM
Text: FIG. 3 depicts similar experiments (means of 2 experiments and SEM) but using a B cell line (WEHI 231 cells). WEHI cells are derived from BALB/c mice (H-2d) and not from C57BL/6 mice (H-2b). The histo-incompatibility between the 2 strains prevents presentation of peptides designed for C57BL/6 mice by BALB/c MHC class II, but not presentation by the non-polymorphic CD1d molecule. […] ID NO: 1 or SEQ. ID NO: 2.

Sequence | capacity of NKT cells to induce apoptosis of APCs [1] | apoptosis of dendritic cells, as measured by annexin V binding [2] | induction of apoptosis [3]
IAFRDNFIGLMYW (modified version of hexon 6 capsid protein) [SEQ. ID NO: 3] | further boosts the capacity of NKT cells to induce apoptosis of APCs |  | 
CHGCGGFIGLMYY (redutase motif + hexon 6 capsid protein) [SEQ. ID NO: 2, residues 333 to 339 of the hexon-6 protein containing a thioreductase motif (CxxC) within flanking residues (GG)] |  | elicit apoptosis of dendritic cells | significant induction of apoptosis
IAFRDNFIGLMYY (fragment of hexon 6 capsis protein) [SEQ. ID NO: 1, amino acid residues 327 to 339 of the hexon-6 protein of adenovirus 5] |  | elicit apoptosis of dendritic cells | significant induction of apoptosis
